From US20040106804A1 (RICHTER GEDEON VEGYESZETI GYAR RT., priority 2001, published 2004)

Conditions: speed depends on the conditions of the dehydration

temperature at which the monohydrate is transformed into anhydrous fluconazole ("anhydrate"): 40-90 °C
SMILES: OC(Cn1cncn1)(Cn1cncn1)c1ccc(F)cc1F [monohydrate, 2-(2,4-Difluorophenyl)-1,3-bis(1,2,4-triazole-1-yl)-propane-2-ol Monohydrate]
